Data: patent EP1596818B1, “COSMETIC COMPOSITION WITH A WHITENING EFFECT, METHOD FOR THE PRODUCTION AND USE THEREOF” (Riemschneider, Randolph, Dr. Dr. Prof., priority 2003, dated 2004)
Where two headings read alike, the source gives them in different places.

How the values were obtained:
[1] = Preclinical test of local tolerability
Source text: Zusammenfassung: der Wirkstoff Methyl-ADAPD ist im Patch-Test auf allergisierendes Potenzial geprüft worden. In einer präklinischen Prüfung wurde die lokale Verträglichkeit abgeklärt.

[2] = system: B16-Melanom-Zellen von Mäusen; assay: B16 melanoma cell test for whitening effect (inhibition of melanin production); format: cell-based; conditions: for Anzahl der Zellen: lyophilisate from aqueous phase of the hand cream, 6 days culture
Protocol: (§1) Nach Zerstörung der Emulsion der Handcreme durch Wasserzusatz und Erhitzen auf 80 °C wurde die wässrige Phase abgetrennt, im Vakuum eingeengt und der Zentrifugenrückstand wurde gefriergetrocknet.
(§2) Definierte Mengen des dabei erhaltenen Lyophilisats wurden in entionisiertem Wasser gelöst und nach den Angaben in dem weiter unten beschriebenen Testverfahren behandelt. Tabelle 1
(§3) Die grobe Beurteilung der Whitening-Effekte wurde vorgenommen nach der Abtrennung der Zellen unter Verwendung von 6 ml EDTA-Lösung und Auszählen der Zellen, z.B. Tabelle 1 und Tabelle 3 (Beurteilungskriterien auf S. 15).
(§4) • 1. Herstellung und Sterilisierung eines Test-Kulturmediums • 2. Herstellung einer Zellenflotationslösung • 3. Einstellung des pH-Wertes des Kulturmediums • 4. Ausstreichen des Kulturmediums auf einer Petrischale • 5. Einimpfen von B16-Melanom-Zellen von Mäusen • 6. […] Auswechseln des Kulturmediums am 3. Tag • 8.

[3] = as above; format: cell-based, Mäusen; conditions: mouse, b16 melanoma cells, cell number relative to control (1,00), read-out: Relativwert
Protocol: as §1, §2, §3, §4

Tyrosinase = Tyrosinase inhibitor rate; format: biochemical
[4] = Wirkstoff-Gehalt 1,25 mg/ml Lösung
[5] = Wirkstoff-Gehalt 2,5 mg/ml Lösung

For CC(=O)C1C(=O)C=C(C)OC1=O (stereo not drawn) [Methyl-ADAPD], the “lokale Verträglichkeit” value [1] was “keine Bedenken”, the Whitening-Effekt [2, 4] was “+” and the “Anzahl der Zellen” value [2, 4] was 82x10^4. For the same compound, the Whitening-Effekt [2, 5] was “+++”, the “Anzahl der Zellen” value [2, 5] was 79x10^4 and the viability at 144 h [3, 4] was 92%. For the same compound, the viability at 144 h [3, 5] was 86%, the Tyrosinase-Inhibitorrate (Tyrosinase; Wirkstoff-Gehalt 0,5 mg/ml Lösung) was 84% and the Tyrosinase-Inhibitorrate (Tyrosinase; Wirkstoff-Gehalt 5 mg/ml Lösung) was 99,1%.
